These results are taken from patent US7342018B2, “Urokinase inhibitors and uses thereof” (Wilex AG, priority 1998, dated 2008).

Series [1] has as its system BN-472 rat mammary carcinoma. Nature of the series: BN-472 rat mammary carcinoma model, single agent and combination with cytotoxics (Example 11). Conditions: for anti-tumor effects (tumor size development, final tumor weight): once weekly administration i.v.
Method: WX-UK1 was dissolved in 5% w/v of D-mannitol to the appropriate dosage and administered once daily or twice weekly either subcutaneously (s.c.) or intraperitonally (i.p.).
Epirubicin (0.75-3 mg/kg body wight), paclitaxel (5-7.5 mg/kg) or 5-FU (20 and 40 mg/kg) was given once weekly by i.v. injection into the external jugular vein.
Control rats received the vehicle 5% w/v of D-mannitol once daily s.c.
A donor rat bearing a tumor of 20×20 mm was sacrificed, the tumor harvested ant the cortex part was sliced into cubes of approximately 10 mm^3 and the transplated orthotopically under the mammary fad pads of female Brown Norway rats.
Treatment was started three or six days (5-FU experiment) after tumor inoculation. Each treatment group consisted of 15 to 21 rats.
Tumor load is plotted as the average±standard error of the mean (SEM).
Tumor, organ weights as well as lung foci counts are presented in Box-Whisker graphs. […] Whiskers extend to the extreme lower 5th and upper 95th percentiles of values. Dots represent individual data.
P-values represent significance levels of pairwise comparisons of treatment groups versus vehicle control. For combination therapy experiments the P-values for the comparison of a cytostatic mono-therapy versus the combination therapy is given.
Series [2] has as its target T1, Urokinase (sc-urokinase) (Homo sapiens, UniProt P00749).
T1 construct: purchased Ribosepharm GmbH, Haan, Germany
Nature of the series: In vitro inhibition of urokinase (chromogenic substrate, Dixon Ki). It is filed as biochemical. Conditions: in vitro inhibition of urokinase, 25° C, pH 8.0, 5% ethanol; read-out: Ki. As to the method:
To determine the inhibitory activity, 200 μl of Tris buffer (0.05 mol/l, containing the inhibitor, 0.154 mol/l NaCl, 5% ethanol pH 8.0), 25 μl of substrate (Pefachrome UK or Bz-βAla-Gly-Arg-pNA in H2O; Pentapharm Ltd., Basle, Switzerland) and 50 μl of sc-urokinase (Ribosepharm GmbH, Haan, Germany) were incubated at 25° C. After 3 min the reaction was stopped by adding 25 μl of acetic acid (50%), and the absorption at 405 nm was determined by means of a Microplate Reader (MR 5000, Dynatech, Denkendorf, Germany). Ki values were determined according to Dixon by linear regression using a computer program. The Ki values are the mean values of at least three determinations with a standard deviation of less than 25%.

`CC(=O)O[C@H]1C(=O)[C@@]2(C)[C@H]([C@H](OC(=O)c3ccccc3)[C@]3(O)C[C@H](OC(=O)[C@H](O)[C@@H](NC(=O)c4ccccc4)c4ccccc4)C(C)=C1C3(C)C)[C@]1(OC(C)=O)CO[C@@H]1C[C@@H]2O` [paclitaxel, reference compound]: the “anti-tumor effects (tumor size development, final tumor weight)” value (“anti-tumor effects” below) in series [1] is “Dose-dependent anti-tumor effects”.

With `COc1cccc2c1C(=O)c1c(O)c3c(c(O)c1C2=O)C[C@@](O)(C(=O)CO)C[C@@H]3O[C@H]1C[C@H](N)[C@@H](O)[C@H](C)O1` [epirubicin, reference compound], the “anti-tumor effects” value in series [1] was “Dose-dependent anti-tumor effects”. Moreover, in series [1] (rat, in vivo), the thymus atrophy result is recorded as “thymus atrophy”.

Take `CCOC(=O)N1CCN(C(=O)C(Cc2cccc(C(=N)N)c2)NS(=O)(=O)c2c(C(C)C)cc(C(C)C)cc2C(C)C)CC1.Cl` (centres unmarked) [D,L, Nα-(2,4,6-triisopropylphenylsulfonyl)-3-amidino-(D,L)-phenylalanine 4-ethoxycarbonylpiperazide hydrochloride]: in series [2], the Ki is 960 nM.

Take `O=c1[nH]cc(F)c(=O)[nH]1` [Example 5-FU, 5-fluorouracil, reference compound]: the “anti-tumor effects” value in series [1] is given as “Dose-dependent anti-tumor effects”.
